Results published in ChEMBL document CHEMBL3508693 (2016).

Key:
[1] = Cmax of aliskiren hemifumarate following single dosing of SPP100B oral solution at 40 mg level studied on day 1 in men; assay type: ADME, organism-based; conditions: male, human, plasma
[2] = Tmax of aliskiren hemifumarate following 8 day once-daily dosing of SPP100B oral solution at 40 mg level studied on day 8 in men; assay type: ADME, organism-based; conditions: male, human, plasma
[3] = Tmax of aliskiren hemifumarate following 8 day once-daily dosing of SPP100B oral solution at 80 mg level studied on day 8 in men; assay type: ADME, organism-based; conditions: male, human, plasma
[4] = AUC of unlabeled aliskiren hemifumarate following single intravenous dose of aliskiren hemifumarate at 10 mg.Kg-1 level in mouse; assay type: ADME, organism-based; conditions: TgRasH2, mouse, plasma
[5] = Tmax (0-96h) of unlabeled aliskiren hemifumarate following oral administration of aliskiren hemifumarate at 100 mg.Kg-1 level in rat; assay type: ADME, organism-based; conditions: Albino HAN:WIST, plasma
[6] = Effect of 2 week oral dosing of aliskiren hemifumarate at 50 mg.Kg-1 level on plasma creatinine level in male Callithrix jacchus; assay type: toxicity, organism-based; conditions: marmoset, 336 h
[7] = Cmaxspec of aliskiren hemifumarate following 2 week oral dosing of aliskiren hemifumarate at 10 mg.Kg-1 level studied on day 1 in male Callithrix jacchus; assay type: ADME, organism-based, Plasma; conditions: marmoset, in vivo, 336 h
[8] = Effect of 4 week oral dietary dosing of aliskiren hemifumarate at 1500 mg.Kg-1 level on density of uterine gland in female mouse; assay type: toxicity, organism-based, CB6F1-TGrasH2, Endometrial gland; conditions: in vivo, 672 h
[9] = Effect of 4 week oral dietary dosing of aliskiren hemifumarate at 500 mg.Kg-1 level on spermatogenesis in male mouse; assay type: toxicity, organism-based, CB6F1-TGrasH2, Testis; conditions: in vivo, 672 h
[10] = Apparent terminal elimination half-life (0-96h) of unlabeled aliskiren hemifumarate following intravenous administration of aliskiren hemifumarate at 10 mg.Kg-1 level in rat; assay type: ADME, organism-based; conditions: Albino HAN:WIST, plasma
[11] = AUC (0-24h) of aliskiren hemifumarate following 4 week oral dietary dosing of aliskiren hemifumarate at 1500 mg.Kg-1 level in male mouse; assay type: ADME, organism-based; conditions: CB6F1-TGrasH2, mouse, plasma
[12] = AUC(0-24h) of aliskiren hemifumarate following 2 week oral dosing of aliskiren hemifumarate at 10 mg.Kg-1 level studied on day 1 in male Callithrix jacchus; assay type: ADME, organism-based; conditions: marmoset, plasma
[13] = AUC(0-24h) of aliskiren hemifumarate following 2 week oral dosing of aliskiren hemifumarate at 50 mg.Kg-1 level studied on day 14 in male Callithrix jacchus; assay type: ADME, organism-based; conditions: marmoset, plasma
[14] = AUCspec of aliskiren hemifumarate following 2 week oral dosing of aliskiren hemifumarate at 100 mg.Kg-1 level studied on day 1 in female Callithrix jacchus; assay type: ADME, organism-based, Plasma; conditions: marmoset, in vivo, 336 h
[15] = Excretion (0-168h) of aliskiren in urine following intravenous administration of [14C] aliskiren hemifumarate at 1 mg.Kg-1 level in marmoset; assay type: ADME, organism-based, Callithrix jacchus; conditions: in vivo
[16] = Excretion (0-72h) of aliskiren in faeces following oral administration of [14C] aliskiren hemifumarate at 3 mg.Kg-1 level in marmoset; assay type: ADME, organism-based, Callithrix jacchus, Feces; conditions: in vivo
[17] = molecular target: T1, CYP1A2 (Homo sapiens, UniProt P05177); experiment: Inhibitory activity of 200 uM SPP100 on 484 Pmoles of cDNA-derived CYP1A2 enzyme in microsome prepared from human lymphoblastoid cell line; assay type: ADME, microsomes; design: conc 200 uM, interact cpd conc 50 uM; conditions: probe phenacetin
T1 sequence (P05177 whole entry): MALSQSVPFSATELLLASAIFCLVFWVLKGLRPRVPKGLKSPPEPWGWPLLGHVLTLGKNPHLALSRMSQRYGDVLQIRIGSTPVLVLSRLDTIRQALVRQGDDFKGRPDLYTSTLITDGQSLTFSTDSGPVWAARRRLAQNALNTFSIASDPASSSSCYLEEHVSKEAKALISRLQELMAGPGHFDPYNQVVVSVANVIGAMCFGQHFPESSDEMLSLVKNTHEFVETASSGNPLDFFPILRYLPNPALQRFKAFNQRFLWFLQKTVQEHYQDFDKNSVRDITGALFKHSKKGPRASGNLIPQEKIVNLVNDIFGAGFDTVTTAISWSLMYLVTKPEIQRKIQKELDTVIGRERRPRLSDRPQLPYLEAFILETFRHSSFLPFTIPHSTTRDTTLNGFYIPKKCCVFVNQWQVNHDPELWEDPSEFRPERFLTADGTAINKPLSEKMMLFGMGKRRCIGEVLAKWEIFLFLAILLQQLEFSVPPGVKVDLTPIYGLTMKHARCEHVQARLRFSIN

[18] = molecular target: T2, CYP2C19 (Homo sapiens, UniProt P33261); experiment: Inhibitory activity of 20 uM SPP100 on 1214 Pmoles of cDNA-derived CYP2C19 enzyme in microsome prepared from human lymphoblastoid cell line; assay type: ADME, microsomes; design: conc 20 uM, interact cpd conc 50 uM; conditions: probe (S)-mephenytoin (50 uM)
[19] = % SPP100 recovered in urine following single intravenous administration of 10 mg.Kg-1 [14C] aliskiren hemifumarate in male rat; assay type: ADME, organism-based, HAN:WIST(SPF); conditions: in vivo
[20] = molecular target: T2, CYP2C19; experiment: Inhibition of CYP2C19 in human liver microsomes from 10 healthy donors at 200 uM aliskiren (SPP100); assay type: ADME, Microsome; design: conc 200 uM; conditions: probe S-mephenytoin (4'-hydroxylation)
[21] = Faecal elimination of aliskiren following single oral dose of [14C] aliskiren hemifumarate at 500 mg.Kg-1 level in mouse; assay type: ADME, organism-based, TgRasH2, Feces; conditions: in vivo
[22] = Mean excretion of radioactivity (0-24h) in urine and faeces following single intravenous dose of 10 mg.Kg-1 [14C] aliskiren hemifumarate in mouse; assay type: ADME, organism-based, TgRasH2, Urine/Feces; conditions: in vivo
[23] = Excretion of radioactivity (24-48h) in urine following single intravenous dose of 10 mg.Kg-1 [14C] aliskiren hemifumarate in mouse; assay type: ADME, organism-based, TgRasH2; conditions: in vivo
[24] = Excretion of radioactivity (24-48h) in faeces following single oral dose of 500 mg.Kg-1 [14C] aliskiren hemifumarate in mouse; assay type: ADME, organism-based, TgRasH2, Feces; conditions: in vivo
[25] = Excretion of radioactivity (48-72h) in urine following single oral dose of 500 mg.Kg-1 [14C] aliskiren hemifumarate in mouse; assay type: ADME, organism-based, TgRasH2; conditions: in vivo
[26] = Plasma clearance (0-96h) of total radioactivity following oral administration of [14C] aliskiren hemifumarate at 100 mg.Kg-1 level in rat; assay type: ADME, organism-based, Albino HAN:WIST; conditions: in vivo, iv
[27] = Elimination (0-96h) of radioactivity via biliary route following intravenous administration of [14C] aliskiren hemifumarate at 10 mg.Kg-1 level in rat; assay type: ADME, organism-based, Albino HAN:WIST, Bile; conditions: in vivo
[28] = Mean excretion of radioactivity (0-24h) in urine and faeces following single oral dose of 100 mg.Kg-1 [14C] aliskiren hemifumarate in rat; assay type: ADME, organism-based, Albino HAN:WIST, Urine/Feces; conditions: in vivo
[29] = molecular target: Cytochrome P450 3A4 (Homo sapiens, UniProt P08684); experiment: Metabolic clearance (ul.min.nmol-1 CYP) of aliskiren hemifumarate for CYP3A4 was determined in human liver microsome incubated with [14C]SPP100 hemifumarate; assay type: ADME; conditions: microsomes
[30] = Excretion of radioactivity (0-96h) in urine following single oral dose of 100 mg.Kg-1 [14C] aliskiren hemifumarate in rat; assay type: ADME, organism-based, Albino HAN:WIST; conditions: in vivo
[31] = Concentration of radioactivity in the liver following repeated oral administration of [14C] aliskiren hemifumarate at 100 mg.Kg-1 level studied at 24h after 3rd dose in rat; assay type: ADME, organism-based, Albino HAN:WIST; conditions: in vivo
[32] = Concentration of radioactivity in the liver following repeated oral administration of [14C] aliskiren hemifumarate at 100 mg.Kg-1 level studied at 2h after 7th dose in rat; assay type: ADME, organism-based, Albino HAN:WIST; conditions: in vivo
[33] = Concentration of radioactivity in the liver following repeated oral administration of [14C] aliskiren hemifumarate at 100 mg.Kg-1 level studied at 2h after 10th dose in rat; assay type: ADME, organism-based, Albino HAN:WIST; conditions: in vivo

T2 sequence (P33261 whole entry): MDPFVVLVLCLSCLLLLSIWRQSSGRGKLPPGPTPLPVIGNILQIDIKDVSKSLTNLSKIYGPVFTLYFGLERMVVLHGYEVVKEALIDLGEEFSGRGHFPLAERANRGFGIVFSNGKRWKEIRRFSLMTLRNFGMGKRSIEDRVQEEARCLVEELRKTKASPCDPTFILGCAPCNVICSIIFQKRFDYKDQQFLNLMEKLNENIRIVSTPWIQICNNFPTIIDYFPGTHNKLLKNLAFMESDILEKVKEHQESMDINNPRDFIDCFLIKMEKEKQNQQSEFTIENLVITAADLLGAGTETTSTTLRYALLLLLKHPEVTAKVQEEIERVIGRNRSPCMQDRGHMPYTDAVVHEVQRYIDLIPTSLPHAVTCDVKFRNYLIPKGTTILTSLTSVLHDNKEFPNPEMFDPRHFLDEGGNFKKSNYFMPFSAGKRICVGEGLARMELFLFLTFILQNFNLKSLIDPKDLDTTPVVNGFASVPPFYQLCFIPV
Chain of Cytochrome P450 3A4 (P08684 whole entry): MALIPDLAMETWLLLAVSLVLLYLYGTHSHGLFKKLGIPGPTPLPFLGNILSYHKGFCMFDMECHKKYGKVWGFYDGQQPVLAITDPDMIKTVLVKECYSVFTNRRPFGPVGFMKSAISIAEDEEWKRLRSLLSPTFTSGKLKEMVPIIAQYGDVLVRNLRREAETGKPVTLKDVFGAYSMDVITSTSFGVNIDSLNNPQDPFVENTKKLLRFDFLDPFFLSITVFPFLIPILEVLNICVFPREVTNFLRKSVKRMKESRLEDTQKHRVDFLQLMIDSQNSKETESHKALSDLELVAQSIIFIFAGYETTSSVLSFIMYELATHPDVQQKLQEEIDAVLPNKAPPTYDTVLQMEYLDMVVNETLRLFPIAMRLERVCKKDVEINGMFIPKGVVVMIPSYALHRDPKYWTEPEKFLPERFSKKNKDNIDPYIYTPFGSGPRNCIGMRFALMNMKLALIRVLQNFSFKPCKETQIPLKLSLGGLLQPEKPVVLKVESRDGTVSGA

Question: For COCCCOc1cc(C[C@@H](C[C@H](N)[C@@H](O)C[C@H](C(=O)NCC(C)(C)C(N)=O)C(C)C)C(C)C)ccc1OC.COCCCOc1cc(C[C@@H](C[C@H](N)[C@@H](O)C[C@H](C(=O)NCC(C)(C)C(N)=O)C(C)C)C(C)C)ccc1OC.O=C(O)/C=C/C(=O)O [ALISKIREN FUMARATE], which Cmax [1] is on record?
Answer: 5.1 ng/mL

Question: What about the Tmax [2] of the same molecule?
Answer: 2.1 h

Question: And the Tmax [3]?
Answer: 1.8 h

Question: And the AUC [4]?
Answer: 9.03 µM·h

Question: And the Tmax [5]?
Answer: 0.25 h

Question: And the CREAT_CHANGE_BY [6]?
Answer: 130%

Question: What about the Cmax normalised [7] of the same molecule?
Answer: 0.396 (ug/ml)/(mg/kg)

Question: What about the “Change in density of uterine gland” value [8] of the same molecule?
Answer: OUTCOME = Decreased. No animals died during the study.

Question: What about the Change in spermatogenesis [9] of the same molecule?
Answer: OUTCOME = No abnormalities. No animals died during the study.

Question: What about the half-life [10] of the same molecule?
Answer: 23.1 h

Question: What about the AUC(0-t) at 24 h [11] of the same molecule?
Answer: 4140 ng·h/mL

Question: What about the AUC(0-t) at 24 h [12] of the same molecule?
Answer: 22000 ng·h/mL

Question: And the AUC at 24 h [13]?
Answer: 107000 ng·h/mL

Question: And the AUC normalised [14]?
Answer: 0.84 ((ug.h.ml-1)/(mg/kg)

Question: With COCCCOc1cc(C[C@@H](C[C@H](N)[C@@H](O)C[C@H](C(=O)NCC(C)(C)C(N)=O)C(C)C)C(C)C)ccc1OC as the molecule, how does the Compound recovery [15] read?
Answer: 3%

Question: What about the Compound recovery [16] of the same molecule?
Answer: 78%

Question: And the inhibition at 200 µM [17]?
Answer: 6%

Question: What about the inhibition at 20 µM [18] of the same molecule?
Answer: -1.9%

Question: What about the Compound recovery [19] of the same molecule?
Answer: 79.8%

Question: And the inhibition at 200 µM [20]?
Answer: 42.5%

Question: For COCCCOc1cc(C[C@@H](C[C@H](N)[C@@H](O)C[C@H](C(=O)NCC([14CH3])([14CH3])C(N)=O)C(C)C)C(C)C)ccc1OC.O=C(O)/C=C/C(=O)O, which Radiolabel recovery [21] is on record?
Answer: OUTCOME = Observed, VALUE = Elimination of aliskiren occurred mainly via the biliary or faecal route

Question: And the Radiolabel recovery [22]?
Answer: 84.68%

Question: And the Radiolabel recovery [23]?
Answer: 9.49%

Question: What about the Radiolabel recovery [24] of the same molecule?
Answer: 1.82%

Question: What about the Radiolabel recovery [25] of the same molecule?
Answer: 0.34%

Question: And the Plasma clearance [26]?
Answer: 1.28 L·h/kg

Question: What about the Radiolabel recovery [27] of the same molecule?
Answer: OUTCOME = Observed/Elimination of radioactivity was mainly via biliary route

Question: What about the Radiolabel recovery [28] of the same molecule?
Answer: 36.1%

Question: What about the CL [29] of the same molecule?
Answer: 1013.1 µL·min/nmol

Question: What about the Radiolabel recovery [30] of the same molecule?
Answer: 0.69%

Question: And the Radiolabel recovery [31]?
Answer: OUTCOME = Detected

Question: What about the Radiolabel recovery [32] of the same molecule?
Answer: OUTCOME = Detected

Question: And the Radiolabel recovery [33]?
Answer: OUTCOME = Detected
